Experiment: Solubility of compound (B) in solvent (solid content of saturated solution)
Type: physicochemical
Description: Specifically, whether a specific solvent is the component (C) or the component (D) is determined depending on the type of the component (B). […] In more detail, the solubility is determined by measuring the solid content of the component (B) in a solution consisting of the component (B) and the solvent.
The supernatant liquid of the resulting mixture was dried on a hot plate at 120° C. for one hour and weighed to calculate the solid content.

[1] = solvent: IPA (isopropyl alcohol)

Row | solubility in solvent (solvent: EtOH (ethanol)) | solubility in solvent [1] | solubility in solvent (solvent: MeOH (methanol)) | solubility in solvent (solvent: water) [wt %] | Molecule
1 | 1.8 wt % | 7.1 wt % | 49 wt % | 1.2 | C=CC(=O)OCCn1c(=O)n(CCOC(=O)C=C)c(=O)n(CCOC(=O)C=C)c1=O [Example B-3, Tris(2-hydroxyethyl)isocyanurate triacrylate]
2 | – | ≧50 wt % | ≧50 wt % | – | C=CC(=O)OCC(COCC(COC(=O)C=C)(COC(=O)C=C)COC(=O)C=C)(COC(=O)C=C)COC(=O)C=C [Example B-1, Dipentaerythritol hexaacrylate]
3 | ≧50 wt % | ≧50 wt % | ≧50 wt % | <0.1 | Tricyclodecanediyldimethanol diacrylate [Example B-2]
